Results from patent US20160310454A1, “LIVER X RECEPTOR AGONISTS IN THE TREATMENT OF EMPHYSEMA” (priority 2013, published 2016).
“Also recorded” adds a separate entry of the source.

Key:
[1] = system: murine disease models of atherosclerosis; details: mouse, in vivo; cited from earlier work
[2] = In vivo bioavailability of LXR agonist in lung and serum (LC/MS/MS); set-up: species or system mouse
Experimental: FIG. 23. In vivo bioavailability of LXR agonist (T0901317) in the lung and serum after intraperitoneal (IP) and custom made diet administration. (A.) T0901317 LC/MS/MS Chromatogram showing no difference among standard and samples in the peak shape and retension time. (B.) Table representing levels of the administered drug in serum and lungs of AKR/J mice by IP (2 and 24 hours post drug administration) and in custom made diet (Research Diets Inc, 0.015% w/w). The result was normalized by using serum volume and lung tissue weight. No T0901317 was detected in control serum and lung.

[3] = system: macrophage ABCA1-deficient mice exposed to cigarette smoke for 10 days; experiment: Acute 10 day cigarette smoke exposure of macrophage ABCA1-deficient mice with treatment; type: in vivo, mouse; details: 25 mg/kg IP, 10 days smoke exposure
Experimental: In order to determine if the mechanism identified in vitro contributed to changes in smoke induced lung inflammation in vivo, smoke studies were performed in vivo. […] Through investigation of the smoke-induced regulation of ABCA1, the present disclosure identifies unique pathways that can be targeted to prevent smoking-related emphysema and the progression of lung destruction.

[4] = system: human peripheral blood monocytes differentiated to macrophages, 5% CSE; experiment: Human monocyte-derived macrophages treated with 5% CSE with or without LXR agonist; type: cell-based; details: LXR agonist 3 μM
Text: FIG. 21. Downregulation of ABC transporters in Chronic Obstructive Pulmonary Disease (COPD) as potential therapeutic target with LXR agonist. (A.) (Left) mRNA expression analysis of ABCA1 G1 in lungs of patients with moderate (after lung volume reduction) and severe COPD (after lung transplantation) and (Right) mRNA expression analysis of ABCA1/G1 in lungs of patients with moderate and severe COPD (n=7). (B.) mRNA analysis of ABCA1, ABCG1, MMP9, (C.) MMP-2 and 9 activity assayed by gelatin zymography in human peripheral blood monocytes differentiated to macrophages in vitro by 3 days treatment with M-CSF (10Ong/m1). After differentiation process human macrophages were treated with 5% CSE with or without LXR agonist (T0901317-Cayman) treatment in 3 μM concentration. β-Actin was used as a housekeeping gene control for RT-PCR. Values are presented as statistically significant when *p<0.05, **p<0.01, ***p<0.001 when compared to controls and #p<0.05 compared Co LXR treated human macrophages.
(§1) To prepare cigarette (CSE), the smoke from one cigarette (1.1 mg of nicotine, 15 mg of tar) was passed through 25 mls of phosphate buffered saline (PBS) (Mercer et al., 2004). The pH of the extracted solution was adjusted to 7.4 and then filtered (Mercer et al., 2004). CSE was added to the media at concentrations up to 5% (vol/vol) (Mercer et al., 2004).

[5] = system: mouse macrophages (bone marrow derived, ABCA1 fl/fl WT) treated with 5% CSE; experiment: Mouse macrophages treated with 5% CSE with or without LXR agonist (RT-PCR, Western blot, zymography); type: cell-based
Experimental: as §1
In these experiments both mouse peritoneal and mouse bone marrow derived macrophages (BMdM) were utilized. Mouse peritoneal macrophages were isolated from peritoneal cavities of 3% thioglycolate injected mice on the 5th day from injection. To compare expression of genes in vitro and in vivo peritoneal macrophages were isolated from mice exposed to room air and cigarette smoke. For in vitro analysis cells were seeded on culture plates for 24 h and then treated with CSE. For in vivo analysis cells were collected from peritoneal cavity and mRNA was directly isolated. Mouse BMdMs were obtained from the following mice: ABCA1 fl/fl in a C57/BL6 background. Briefly, mice were first sacrificed by CO2 asphyxiation followed by cervical dislocation. After sacrificing the mouse the legs were amputated and the excess muscle tissue was removed so as to completely expose the femur and tibia, which were cleaned carefully. These samples were left in sterile PBS for the duration of the procedure. The cavity bones were then flushed with 10 ml of PBS using 26G needle. The obtained cells were then counted (usually 100-150 million cells per mouse) and centrifuged for 5 min at 2600 rpm. Hematopoietic cells can be separated by plastic adhesion; therefore the cells were incubated in petri dishes containing DMEM culture media and supplemented with 10% FBS and 1% antibiotics). Non-adherent progenitor cells were then collected after 2 hours of incubation in culture media and then seeded at a concentration of 4 million cells/ml in fresh culture media, supplemented with L-cell conditioned media containing macrophage colony stimulating factor (M-CSF) at a concentration of 20%. Approximately after 7-10 days of plating the cells become fully differentiated into macrophages and were ready for subsequent experiments. After treatment the culture supernatants, proteins, and total RNA were collected for analysis. […]
Total RNA was extracted from specimens of lung tissue 0.3 cm^3 in size with the use of the RNeasy kit (Qiagen, Germantown, Md.) (Goldklang et al., 2012). The RNA was then further processed to obtain cDNA, which was used for Real Time (RT) PCR analysis. TaqMan gene expression assays (Applied Biosystems, Carlsbad, Calif.) were performed to assess gene-transcript levels with the use of an ABI Prism 7900HT Sequence Detection System (Applera, Foster City, Calif.) (Goldklang et al., 2012). The following primers were used to check the respective gene expression: ABCA1 (Hs01059118_m1), ABCG1 (Hs00245154_m1), MMP-9 (Mm00442991_m1), IL-1β (Mm00434227_g1), TNF-α (Mm00443260_g1) and GAPDH (4352932E) from TaqMan Gene Expression Assays, Applied Biosystems, CA. β-actin was used as a control since it is a housekeeping gene.
The lungs of mice (-10 mg) were homogenized in 1 ml of Radioimmunoprecipitation assay (RIPA) buffer, and centrifuged at 14,000 g for 10 min. The protein concentration of each sample was measured using a Bradford reagent. The required amount of each sample was then used for western blot analysis, so that the concentration was equal for all samples. Proteins were first separated on the basis of molecular weight via sodium dodecyl sulphate polyacrylamide gel electrophoresis (SDS-PAGE). The same gel was then transferred onto a nitro cellulose membrane with the help of electric current (or electroblotting) that transfers the protein from polyacrylamide gel to the membrane. This membrane was then incubated in the solution containing primary antibodies, specific for the proteins of interest, ABCA1 and ABCG1, followed by the use of a secondary antibody that allowed the detection of protein by chemiluminescent. […]

O=S(=O)(c1ccccc1)N(CC(F)(F)F)c1ccc(C(O)(C(F)(F)F)C(F)(F)F)cc1 [T0901317, N-(2,2,2-trifluoroethyl)-N-[4-[2,2,2-trifluoro-1-hydroxy-1-(trifluoromethyl)ethyl]phenyl]-benzenesulfonamide]
cholesterol level in serum and liver [1]: lowers
development of atherosclerosis [1]: inhibits
drug detected in the lungs ([2]; after IP administration, acute 10 day model): detected
drug detected in the lungs ([2]; chronic 5 months model (diet 0.015% w/w), text prints after IP administration): detected
pulmonary inflammation (total cell counts in BAL) [3]: did not resolve
ABC transporter levels (ABCA1, ABCG1 mRNA) [4]: restored
CSE increased MMP-9 expression and activity [4]: inhibited
Expression of ABCA1 and ABCG1 (mRNA and protein) ([5]; 5% CSE, LXR agonist 3 μM): maintained at baseline levels
cigarette smoke induced mRNA expression of TLR4/Myd88 ([5]; 5% CSE, LXR agonist 3 μM): inhibited
cigarette smoke induced phosphorylation of JNK and ERK ([5]; 5% CSE, LXR agonist 3 μM, Western blot): inhibited
Expression of ABCA1 and ABCG1 (mRNA and protein) ([5]; 5% CSE, LXR agonist 3 μM, listed as LXR agonist): re-established
CSE induced upregulation of IL-1β and TNFα and downregulation of IL-10 (mRNA) ([5]; ABCA1 WT macrophages, 5% CSE, LXR agonist 3 μM): reversed back to baseline
mRNA and activity of MMP-9 ([5]; ABCA1 WT macrophages, 5% CSE, LXR agonist 3 μM, gelatin zymography): blocked; also recorded: reduced
cigarette smoke-induced pro-inflammatory cytokines and MMP expression and activity ([5]; mouse macrophages treated with CSE): blocked
MMP-9 activity (zymography) and expression, MMP-13 expression and TNFα expression ([5]; smoke-induced, macrophages): decrease
